According to PMC4441267:

Assays:
[1] = CuAAC macrocyclisation to 1,4-triazole (CuI 2 eq, DIPEA 3 eq), Boc retained; details: THF (reflux), 1.2 mM, 66.0 °C, 18.0 h
[2] = CuAAC macrocyclisation of azide/terminal alkyne linear peptidomimetics to 1,4-triazole (CuI 2 eq, DIPEA 3 eq, Ar-degassed), then Boc removal (TMSCl/MeOH GP4; HCl/dioxane GP5 for A13w, J13w); details: THF (reflux), 1.2 mM, 66.0 °C, 18.0 h, 2 steps

Structure (SMILES): COC(=O)[C@@H]1CCCCn2cc(nn2)CNC(=O)NCC[C@H](NC(=O)OC(C)(C)C)C(=O)N[C@H](C(=O)OC)CCC(=O)N1 [Boc-Dab(CONH-propargyl)-Glu(gamma-Lys(N3)-OMe)-OMe]
- ring closure, isolated yield ([1]; from C#CCNC(=O)NCC[C@H](NC(=O)OC(C)(C)C)C(=O)N[C@@H](CCC(=O)N[C@@H](CCCCN=[N+]=[N-])C(=O)OC)C(=O)OC, 22-membered ring): 67%

Structure (SMILES): COC(=O)[C@@H]1CCCCn2cc(nn2)CCC(=O)NC[C@H](NC(=O)OC(C)(C)C)C(=O)N[C@H](C(=O)OC)CCC(=O)N1 [Boc-Dap(4-pentynoyl)-Glu(gamma-Lys(N3)-OMe)-OMe]
- ring closure, isolated yield ([1]; from C#CCCC(=O)NC[C@H](NC(=O)OC(C)(C)C)C(=O)N[C@@H](CCC(=O)N[C@@H](CCCCN=[N+]=[N-])C(=O)OC)C(=O)OC, 21-membered ring): 94%

Structure (SMILES): COC(=O)[C@@H]1CCCCn2cc(nn2)CCCC(=O)NC[C@H](NC(=O)OC(C)(C)C)C(=O)N[C@H](C(=O)OC)CCC(=O)N1 [Boc-Dap(5-hexynoyl)-Glu(gamma-Lys(N3)-OMe)-OMe]
- ring closure, isolated yield ([1]; from C#CCCCC(=O)NC[C@H](NC(=O)OC(C)(C)C)C(=O)N[C@@H](CCC(=O)N[C@@H](CCCCN=[N+]=[N-])C(=O)OC)C(=O)OC, 22-membered ring): 69%

Structure (SMILES): COC(=O)[C@@H]1CCCCn2cc(nn2)CNC(=O)NC[C@H](NC(=O)OC(C)(C)C)C(=O)N[C@H](C(=O)OC)CCC(=O)N1 [Boc-Dap(CONH-propargyl)-Glu(gamma-Lys(N3)-OMe)-OMe]
- ring closure, isolated yield ([1]; from C#CCNC(=O)NC[C@H](NC(=O)OC(C)(C)C)C(=O)N[C@@H](CCC(=O)N[C@@H](CCCCN=[N+]=[N-])C(=O)OC)C(=O)OC, 21-membered ring): 99%

Structure (SMILES): COC(=O)[C@@H]1CCCCn2cc(nn2)CCC(=O)NCCCC[C@H](NC(=O)OC(C)(C)C)C(=O)N[C@H](C(=O)OC)CCC(=O)N1 [Boc-Lys(4-pentynoyl)-Glu(gamma-Lys(N3)-OMe)-OMe]
- ring closure, isolated yield ([1]; from C#CCCC(=O)NCCCC[C@H](NC(=O)OC(C)(C)C)C(=O)N[C@@H](CCC(=O)N[C@@H](CCCCN=[N+]=[N-])C(=O)OC)C(=O)OC, 24-membered ring): 69%

Structure (SMILES): COC(=O)[C@@H]1CCCCn2cc(nn2)CCCC(=O)NCCCC[C@H](NC(=O)OC(C)(C)C)C(=O)N[C@H](C(=O)OC)CCC(=O)N1 [Boc-Lys(5-hexynoyl)-Glu(gamma-Lys(N3)-OMe)-OMe]
- ring closure, isolated yield ([1]; from C#CCCCC(=O)NCCCC[C@H](NC(=O)OC(C)(C)C)C(=O)N[C@@H](CCC(=O)N[C@@H](CCCCN=[N+]=[N-])C(=O)OC)C(=O)OC, 25-membered ring): 70%

Structure (SMILES): COC(=O)[C@@H]1CCCCn2cc(nn2)CNC(=O)NCCCC[C@H](NC(=O)OC(C)(C)C)C(=O)N[C@H](C(=O)OC)CCC(=O)N1 [Boc-Lys(CONH-propargyl)-Glu(gamma-Lys(N3)-OMe)-OMe]
- ring closure, isolated yield ([1]; from C#CCNC(=O)NCCCC[C@H](NC(=O)OC(C)(C)C)C(=O)N[C@@H](CCC(=O)N[C@@H](CCCCN=[N+]=[N-])C(=O)OC)C(=O)OC, 24-membered ring): 62%

Structure (SMILES): COC(=O)[C@@H]1CCCCn2cc(nn2)CCC(=O)NCCC[C@H](NC(=O)OC(C)(C)C)C(=O)N[C@H](C(=O)OC)CCC(=O)N1 [Boc-Orn(4-pentynoyl)-Glu(gamma-Lys(N3)-OMe)-OMe]
- ring closure, isolated yield ([1]; from C#CCCC(=O)NCCC[C@H](NC(=O)OC(C)(C)C)C(=O)N[C@@H](CCC(=O)N[C@@H](CCCCN=[N+]=[N-])C(=O)OC)C(=O)OC, 23-membered ring): 71%

Structure (SMILES): COC(=O)[C@@H]1CCCCn2cc(nn2)CCCC(=O)NCCC[C@H](NC(=O)OC(C)(C)C)C(=O)N[C@H](C(=O)OC)CCC(=O)N1 [Boc-Orn(5-hexynoyl)-Glu(gamma-Lys(N3)-OMe)-OMe]
- ring closure, isolated yield ([1]; from C#CCCCC(=O)NCCC[C@H](NC(=O)OC(C)(C)C)C(=O)N[C@@H](CCC(=O)N[C@@H](CCCCN=[N+]=[N-])C(=O)OC)C(=O)OC, 24-membered ring): 99%

Structure (SMILES): COC(=O)[C@@H]1CCCCNC(=O)[C@H](Cc2ccccc2)n2cc(nn2)CCCC(=O)NCCC[C@H](NC(=O)OC(C)(C)C)C(=O)N1 [Boc-Orn(5-hexynoyl)-Lys(N3-Phe)-OMe]
- ring closure, yield over several steps ([2]; from C#CCCCC(=O)NCCC[C@H](NC(=O)OC(C)(C)C)C(=O)N[C@@H](CCCCNC(=O)[C@H](Cc1ccccc1)N=[N+]=[N-])C(=O)OC, 22-membered ring): 99%

Structure (SMILES): COC(=O)[C@@H]1CCCn2cc(nn2)CCCC(=O)NCCC[C@H](NC(=O)OC(C)(C)C)C(=O)N1 [Boc-Orn(5-hexynoyl)-Orn(N3)-OMe]
- ring closure, yield over several steps ([2]; from C#CCCCC(=O)NCCC[C@H](NC(=O)OC(C)(C)C)C(=O)N[C@@H](CCCN=[N+]=[N-])C(=O)OC, 18-membered ring): 71%

Structure (SMILES): COC(=O)[C@@H]1CNC(=O)[C@H](Cc2ccccc2)n2cc(nn2)CNC(=O)NCCC[C@H](NC(=O)OC(C)(C)C)C(=O)N1 [Boc-Orn(CONH-propargyl)-Dap(N3-Phe)-OMe]
- ring closure, yield over several steps ([2]; from C#CCNC(=O)NCCC[C@H](NC(=O)OC(C)(C)C)C(=O)N[C@@H](CNC(=O)[C@H](Cc1ccccc1)N=[N+]=[N-])C(=O)OC, 18-membered ring): 96%

Structure (SMILES): COC(=O)[C@@H]1CCCCn2cc(nn2)CNC(=O)NCCC[C@H](NC(=O)OC(C)(C)C)C(=O)N[C@H](C(=O)OC)CCC(=O)N1 [Boc-Orn(CONH-propargyl)-Glu(gamma-Lys(N3)-OMe)-OMe]
- ring closure, isolated yield ([1]; from C#CCNC(=O)NCCC[C@H](NC(=O)OC(C)(C)C)C(=O)N[C@@H](CCC(=O)N[C@@H](CCCCN=[N+]=[N-])C(=O)OC)C(=O)OC, 23-membered ring): 60%

Structure (SMILES): COC(=O)[C@@H]1CCCCn2cc(nn2)CNC(=O)NCCC[C@H](NC(=O)OC(C)(C)C)C(=O)N1 [Boc-Orn(CONH-propargyl)-Lys(N3)-OMe]
- ring closure, yield over several steps ([2]; from C#CCNC(=O)NCCC[C@H](NC(=O)OC(C)(C)C)C(=O)N[C@@H](CCCCN=[N+]=[N-])C(=O)OC, 18-membered ring): 99%

Structure (SMILES): COC(=O)[C@@H]1CCCCNC(=O)[C@H](Cc2ccccc2)n2cc(nn2)CNC(=O)NCCC[C@H](NC(=O)OC(C)(C)C)C(=O)N1 [Boc-Orn(CONH-propargyl)-Lys(N3-Phe)-OMe]
- ring closure, yield over several steps ([2]; from C#CCNC(=O)NCCC[C@H](NC(=O)OC(C)(C)C)C(=O)N[C@@H](CCCCNC(=O)[C@H](Cc1ccccc1)N=[N+]=[N-])C(=O)OC, 21-membered ring): 87%

Structure (SMILES): COC(=O)[C@@H]1CCCn2cc(nn2)CNC(=O)NCCC[C@H](NC(=O)OC(C)(C)C)C(=O)N1 [Boc-Orn(CONH-propargyl)-Orn(N3)-OMe]
- ring closure, yield over several steps ([2]; from C#CCNC(=O)NCCC[C@H](NC(=O)OC(C)(C)C)C(=O)N[C@@H](CCCN=[N+]=[N-])C(=O)OC, 17-membered ring): 99%

Structure (SMILES): COC(=O)[C@@H]1CCCn2cc(nn2)CCCC(=O)Nc2ccc(cc2)C[C@H](NC(=O)OC(C)(C)C)C(=O)N[C@@H](C)C(=O)N1 [Boc-Phe(4-NH-5-hexynoyl)-Ala-Orn(N3)-OMe]
- ring closure, yield over several steps ([2]; from C#CCCCC(=O)Nc1ccc(C[C@H](NC(=O)OC(C)(C)C)C(=O)N[C@@H](C)C(=O)N[C@@H](CCCN=[N+]=[N-])C(=O)OC)cc1, 23-membered ring): 21%

Structure (SMILES): COC(=O)[C@@H]1CCCCn2cc(nn2)CCCC(=O)Nc2ccc(cc2)C[C@H](NC(=O)OC(C)(C)C)C(=O)N[C@H](C(=O)OC)CCC(=O)N1 [Boc-Phe(4-NH-5-hexynoyl)-Glu(gamma-Lys(N3)-OMe)-OMe]
- ring closure, isolated yield ([1]; from C#CCCCC(=O)Nc1ccc(C[C@H](NC(=O)OC(C)(C)C)C(=O)N[C@@H](CCC(=O)N[C@@H](CCCCN=[N+]=[N-])C(=O)OC)C(=O)OC)cc1, 26-membered ring): 12%

Structure (SMILES): COC(=O)[C@@H]1CCCCNC(=O)[C@H](Cc2ccccc2)n2cc(nn2)CCCC(=O)Nc2ccc(cc2)C[C@H](NC(=O)OC(C)(C)C)C(=O)N1 [Boc-Phe(4-NH-5-hexynoyl)-Lys(N3-Phe)-OMe]
- ring closure, yield over several steps ([2]; from C#CCCCC(=O)Nc1ccc(C[C@H](NC(=O)OC(C)(C)C)C(=O)N[C@@H](CCCCNC(=O)[C@H](Cc2ccccc2)N=[N+]=[N-])C(=O)OC)cc1, 24-membered ring): 11%
